Ends that are not written are not given here.

The values below come from patent US7112654B2, “Ligand for vascular endothelial growth factor receptor” (Supratek Pharma Inc., priority 2001, dated 2006).

Assay [1] addresses hFlt-1 (Homo sapiens, UniProt P17948). Briefly: Binding of alanine-substituted and truncated phage clones to immobilized Flt-1 receptor by ELISA. The following applies: relative to clone V5.2.
For assay [2], the target named is VEGF receptor-1 (human Flt-1/Fc chimera) (Homo sapiens, UniProt P17948). Nature of the assay: Phage binding assay to immobilized VEGF receptor-1 (anti-M13 ELISA). The following applies: 10^9 virions/200 μl, overnight at 4 degree.
Assay [3] concerns endothelial cells. The note with it: VEGF binding to KDR; cited from earlier work.
The target in assay [4] is Flt-1 (Homo sapiens, UniProt P17948). The note with it: cited from earlier work.
Flt-1, sequence (P17948 27-1338, species assumed): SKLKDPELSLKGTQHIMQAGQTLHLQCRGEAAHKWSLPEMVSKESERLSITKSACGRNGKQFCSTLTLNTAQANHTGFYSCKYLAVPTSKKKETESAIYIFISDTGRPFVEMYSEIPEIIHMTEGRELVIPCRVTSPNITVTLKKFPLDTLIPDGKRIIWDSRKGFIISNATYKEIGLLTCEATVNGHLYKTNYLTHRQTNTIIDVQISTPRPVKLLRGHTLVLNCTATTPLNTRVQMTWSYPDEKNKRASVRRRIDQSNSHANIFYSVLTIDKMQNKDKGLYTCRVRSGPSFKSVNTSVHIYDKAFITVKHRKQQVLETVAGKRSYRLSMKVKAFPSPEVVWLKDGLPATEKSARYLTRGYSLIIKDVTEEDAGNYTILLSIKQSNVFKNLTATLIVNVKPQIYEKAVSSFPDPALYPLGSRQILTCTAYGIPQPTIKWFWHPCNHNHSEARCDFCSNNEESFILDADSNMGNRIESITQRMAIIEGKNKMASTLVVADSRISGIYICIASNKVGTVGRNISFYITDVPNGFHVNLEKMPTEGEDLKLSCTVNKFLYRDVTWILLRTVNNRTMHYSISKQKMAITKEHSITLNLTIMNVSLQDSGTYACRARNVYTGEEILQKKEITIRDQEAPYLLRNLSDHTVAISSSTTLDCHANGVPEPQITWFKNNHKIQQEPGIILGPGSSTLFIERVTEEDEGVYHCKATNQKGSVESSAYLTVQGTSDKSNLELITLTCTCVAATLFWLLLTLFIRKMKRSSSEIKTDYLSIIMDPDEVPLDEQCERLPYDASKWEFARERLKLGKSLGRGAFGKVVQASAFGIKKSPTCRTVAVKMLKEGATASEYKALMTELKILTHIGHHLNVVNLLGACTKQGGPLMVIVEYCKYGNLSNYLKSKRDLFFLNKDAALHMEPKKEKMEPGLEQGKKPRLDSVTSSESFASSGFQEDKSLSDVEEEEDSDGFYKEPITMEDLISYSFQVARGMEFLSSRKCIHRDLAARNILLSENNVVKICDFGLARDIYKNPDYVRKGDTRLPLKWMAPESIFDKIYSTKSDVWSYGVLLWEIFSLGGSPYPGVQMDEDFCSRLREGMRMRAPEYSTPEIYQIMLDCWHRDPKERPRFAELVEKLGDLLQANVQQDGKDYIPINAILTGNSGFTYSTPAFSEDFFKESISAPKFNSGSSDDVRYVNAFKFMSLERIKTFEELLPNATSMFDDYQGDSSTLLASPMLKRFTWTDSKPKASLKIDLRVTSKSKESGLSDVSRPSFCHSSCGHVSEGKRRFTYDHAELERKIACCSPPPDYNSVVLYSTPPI

hFlt-1, sequence (P17948 27-687 isoform P17948-2 limits assumed): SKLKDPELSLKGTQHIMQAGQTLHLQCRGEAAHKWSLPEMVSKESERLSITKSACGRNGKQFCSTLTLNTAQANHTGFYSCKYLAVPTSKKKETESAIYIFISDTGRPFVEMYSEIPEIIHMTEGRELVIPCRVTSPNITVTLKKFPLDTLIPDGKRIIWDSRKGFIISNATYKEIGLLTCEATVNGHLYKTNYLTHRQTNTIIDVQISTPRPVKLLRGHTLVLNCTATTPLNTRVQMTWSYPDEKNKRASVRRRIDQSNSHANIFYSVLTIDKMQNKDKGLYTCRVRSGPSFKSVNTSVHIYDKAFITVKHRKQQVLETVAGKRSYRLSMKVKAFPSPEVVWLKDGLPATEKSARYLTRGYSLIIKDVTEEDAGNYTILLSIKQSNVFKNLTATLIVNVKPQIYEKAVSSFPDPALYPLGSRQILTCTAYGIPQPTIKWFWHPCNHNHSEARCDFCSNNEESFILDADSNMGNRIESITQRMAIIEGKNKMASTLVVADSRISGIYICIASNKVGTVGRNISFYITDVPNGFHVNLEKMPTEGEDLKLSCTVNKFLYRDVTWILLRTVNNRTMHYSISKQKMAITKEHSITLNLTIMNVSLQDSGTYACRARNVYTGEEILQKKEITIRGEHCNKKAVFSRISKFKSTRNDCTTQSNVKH
VEGF receptor-1 (human Flt-1/Fc chimera), sequence (P17948 27-687 isoform P17948-2 limits assumed): as above

As to “EIEWYSW (displayed on phage; Chemical peptide synthesis and biosynthesis utilizing E. coli) [V5.2/1]”, the “Binding to hFlt-1 in %” value in assay [1] was 6.55 ± 15.81%. Turning to FVGGWLVPEDERLYPE [V40], in assay [2], the “ABSORBANCE, A 405” value came out at 0.025 ± 0.014. For the substance “NGYAIAWYSWVTHGMY (displayed on phage; Chemical peptide synthesis and biosynthesis utilizing E. coli) [E46/A]”, the “Binding to hFlt-1 in %” value in assay [1] was determined as 44.46 ± 7.05%. Consider “NGYEIEAYSAVTHGMY (displayed on phage; Chemical peptide synthesis and biosynthesis utilizing E. coli) [W710/A]”, for which the “Binding to hFlt-1 in %” value in assay [1] came out at 62.15 ± 22.16%. For the substance PEPEVRLSPPGHIQSL [V5.10], the “ABSORBANCE, A 405” value in assay [2] is 0.039 ± 0.013. For the substance VEGF, the ED50 in assay [3] is 0.1 to 1 ng/mL. For the same substance, in assay [4], the dissociation constant Kd (commonly the equilibrium constant for the complex coming apart) was 10 to 20 pM.
